{
  "source": "patent US20140348749A1",
  "about": "“IDENTIFICATION AND TREATMENT OF TUMORS SENSITIVE TO GLUCOSE LIMITATION” (Whitehead Institute for Biomedical Research, priority 2013, published 2014)",
  "key": {"[1]": {"test_system": "glucose limitation sensitive or resistant cell lines", "protocol": "(§1) 250,000 cells then were attached to the plate by centrifugation at 2200 rpm without brakes for 5 min. For adherent cells, 40,000 to 80,000 cells were plated the night before the experiments. […] For spare respiratory capacity measurements, increasing FCCP concentrations (0.1, 0.5 and 2 uM) were used in order to assess maximum OCR of each cell line. For basal oxygen consumption measurements, cell number or protein concentration was used for normalization.\nMetabolic responses of cell lines to mitochondrial uncoupling were analyzed by treating cells from a number of glucose limitation sensitive or resistant cell lines with the mitochondrial uncoupling agent FCCP and measuring OCR."}, "[2]": {"test_system": "glucose limitation sensitive and glucose limitation resistant tumor cell lines", "experiment": "Proliferation of tumor cell lines exposed to metformin under low glucose", "assay_type": "cell-based", "protocol": "We tested the sensitivity of a panel of glucose limitation sensitive and glucose limitation resistant tumor cell lines to treatment with metformin, a compound that inhibits OXPHOS at least in part by inhibiting complex 1. Cells were exposed to 2 mM metformin for 3 days."}, "[3]": {"test_system": "panel of 8 cell lines with varying expression of CYC1 and UQCRC1", "experiment": "Metformin sensitivity versus CYC1 and UQCRC1 expression in a panel of 8 cell lines", "assay_type": "cell-based", "conditions": "1 mM glucose as low glucose condition", "protocol": "We tested the hypothesis that expression of CYC1 and UQCRC1 could predict sensitivity to metformin under conditions in which glucose is limiting. […] 1 mM glucose was used as a low glucose condition in this experiment."}, "[4]": {"test_system": "tumors from glucose limitation resistant cell line NCI-H82", "experiment": "Metformin treatment of mice with established tumors", "assay_type": "in vivo", "conditions": "metformin 400 mg/kg, close to 3 weeks", "protocol": "(§2) In vivo data was obtained initially using one cell line that is resistant to glucose limitation (NCI-H82) and one cell line that is sensitive to glucose limitation (NCI-H929). Mice harboring established tumors derived from these cell lines were treated with metformin (400 mg/kg) or vehicle (PBS) for close to 3 weeks and tumor size was measured. The tumor sizes were averaged for all tumors in that particular group at the end. […] Tumors from the sensitive line are on average half the size in mice treated with metformin than in mice treated with vehicle."}, "[5]": {"test_system": "tumors from glucose limitation sensitive cell line NCI-H929", "experiment": "Metformin treatment of mice with established tumors", "assay_type": "in vivo", "conditions": "metformin 400 mg/kg, close to 3 weeks", "protocol": "as §2"}, "[6]": {"conditions": "among tetracycline-class antibiotics; cited from earlier work"}, "Cal-62 cells": {"test_system": "Cal-62 cells", "experiment": "Long term culture of mtDNA mutant cells in phenformin", "assay_type": "cell-based", "conditions": "Cal-62, 1.5 months, 5-20 uM phenformin", "protocol": "Cells were split 1:10 when nearing confluence. […] The ratio of wild type to mutant mtDNA was calculated by summing the 11 Sanger Sequencing peak height measurements per nucleotide position for the wild type and mutant allele allowing for the percent mutant calculated. These values were averaged over three nucleotide positions for which the base in the wild type and mutant sequence differs."}, "[7]": {"test_system": "cells with mutations in Complex I", "experiment": "Oxygen consumption rate (OCR) with phenformin, control or NDI1-expressing lines", "assay_type": "cell-based", "protocol": "as §1"}, "BxPC3 xenografts": {"test_system": "BxPC3 xenografts", "experiment": "Phenformin in drinking water, tumour xenografts", "assay_type": "in vivo, mice", "conditions": "BxPC3 (mtDNA mutations); phenformin 1.7 mg/ml in drinking water", "protocol": "(§3) Further in vivo experiments were conducted using additional tumor cell lines. Xenografts were initiated with 2-5 million cells per injection site implanted subcutaneously into the right and left flanks of 5-8 week old male NOD.CB 17 Scid/J mice (Jackson Labs). Once tumours were palpable in all animals (>50 mm^3 volume by caliper measurements), mice were assigned randomly into biguanide treated or untreated groups and caliper measurements were taken every 3-4 days until tumour burden approached the limits set by institutional guidelines. Tumour volume was assessed according to the formula ½*W*W*L or 4/3*3.14*W/2*L/2*D/2 for large tumors. […] All experiments involving mice were carried out with approval from the Committee for Animal Care at MIT and under supervision of the Department of Comparative Medicine at MIT."}, "Cal-62 xenografts": {"test_system": "Cal-62 xenografts", "experiment": "Phenformin in drinking water, tumour xenografts", "assay_type": "in vivo, mice", "conditions": "Cal-62 (mtDNA mutations); phenformin 1.7 mg/ml in drinking water", "protocol": "as §3"}, "KMS-26 xenografts": {"test_system": "KMS-26 xenografts", "experiment": "Phenformin in drinking water, tumour xenografts", "assay_type": "in vivo, mice", "protocol": "as §3"}, "NCI-H929 xenografts": {"test_system": "NCI-H929 xenografts", "experiment": "Phenformin in drinking water, tumour xenografts", "assay_type": "in vivo, mice", "conditions": "NCI-H929 (poor glucose consumption); phenformin 1.7 mg/ml in drinking water", "protocol": "as §3"}, "U-937 xenografts": {"test_system": "U-937 xenografts", "experiment": "Phenformin in drinking water, tumour xenografts", "assay_type": "in vivo, mice", "conditions": "U-937 (mtDNA mutations); phenformin 1.7 mg/ml in drinking water", "protocol": "as §3"}, "[8]": {"test_system": "xenografts of mtDNA mutant cells expressing NDI1", "experiment": "Phenformin in drinking water, xenografts of NDI1-expressing cells", "assay_type": "in vivo, mice", "protocol": "as §3"}, "[9]": {"test_system": "cell lines with mtDNA-encoded Complex I mutations or impaired glucose utilization"}, "143B Rho cells": {"test_system": "143B Rho cells", "experiment": "Proliferation of cells lacking mtDNA with phenformin", "conditions": "0.75 mM or 10 mM glucose"}},
  "note": "Entries after “also recorded” stand apart in the source; their conditions may differ. Like-named read-outs stand apart in the source and are kept apart here.",
  "data": [
    {"smiles": "N#CC(C#N)=NNc1ccc(OC(F)(F)F)cc1", "note": "[FCCP, Carbonyl cyanide 4-(trifluoromethoxy)phenylhydrazone]", "values": [
      {"measurement": "increase in OCR upon FCCP", "setting": "[1]; glucose limitation resistant cell lines", "value": "much greater increase in OCR"},
      {"measurement": "increase in OCR upon FCCP", "setting": "[1]; glucose limitation sensitive cells", "value": "only a modest increase"}
    ]},
    {"smiles": "CN(C)C(=N)NC(=N)N", "note": "[metformin, N,N-dimethylimidodicarbonimidic diamide]", "values": [
      {"measurement": "sensitivity to metformin (proliferation) of glucose limitation sensitive versus resistant cell lines", "setting": "[2]; 2 mM metformin, 3 days, 0.75 mM glucose", "value": "markedly more sensitive; also recorded: greater inhibitory effects on proliferation"},
      {"measurement": "sensitivity of U937 cells to metformin", "setting": "[2]; U937 cell line", "value": "sensitive"},
      {"measurement": "relation of UQCRC1+CYC1 expression to metformin sensitivity", "setting": "[3]", "value": "correlated with sensitivity to metformin; also recorded: increased sensitivity"},
      {"measurement": "cleaved caspase 3 in tumors compared with vehicle", "setting": "[4]", "value": "not observed"},
      {"measurement": "effect on size of tumors compared with vehicle (PBS)", "setting": "[4]", "value": "did not affect size of tumors"},
      {"measurement": "cleaved caspase 3 in tumors compared with vehicle", "setting": "[5]", "value": "increase in cleaved caspase 3; also recorded: increased level of cleaved caspase 3"},
      {"measurement": "reduction in size of tumors compared with vehicle (PBS)", "setting": "[5]", "value": "approximately 50%"},
      {"measurement": "tumor size in metformin treated versus vehicle treated mice", "setting": "[5]", "value": "half the size"}
    ]},
    {"smiles": "CN(C)c1ccc(O)c2c1C[C@H]1C[C@H]3[C@H](N(C)C)C(O)=C(C(N)=O)C(=O)[C@@]3(O)C(O)=C1C2=O", "note": "[minocycline, (2E,4S,4aR,5aS,12aR)-2-(amino-hydroxy-methylidene)-4,7-bis(dimethylamino)-10,11,12a-trihydroxy-4a,5,5a,6-tetrahydro-4H-tetracene-1,3,12-trione]", "values": [
      {"measurement": "penetration into organs", "setting": "[6]", "value": "greatest penetration into certain organs such as the prostate and brain"}
    ]},
    {"smiles": "N=C(N)NC(=N)NCCc1ccccc1", "note": "[phenformin, 2-(N-phenethylcarbamimidoyl)guanidine]", "values": [
      {"measurement": "sensitivity to low glucose after culture in phenformin", "setting": "Cal-62 cells", "value": "decrease in sensitivity to low glucose"},
      {"measurement": "wild-type mtDNA content after culture in phenformin", "setting": "Cal-62 cells", "value": "significantly enriched wild-type mtDNA content"},
      {"measurement": "effect of NDI1 expression on the effects of phenformin on oxygen consumption", "setting": "[7]", "value": "almost completely rescued the effects of phenformin"},
      {"measurement": "growth of tumour xenografts", "setting": "BxPC3 xenografts", "value": "inhibited the growth"},
      {"measurement": "growth of tumour xenografts", "setting": "Cal-62 xenografts", "value": "inhibited the growth"},
      {"measurement": "growth of tumour xenografts", "setting": "KMS-26 xenografts; KMS-26 (poor glucose consumption), phenformin 1.7 mg/ml in drinking water", "value": "inhibited the growth"},
      {"measurement": "effects of phenformin on xenograft growth after over-expression of GLUT3", "setting": "KMS-26 xenografts; KMS-26 cells over-expressing GLUT3", "value": "rescued"},
      {"measurement": "growth of tumour xenografts", "setting": "NCI-H929 xenografts", "value": "inhibited the growth"},
      {"measurement": "growth of tumour xenografts", "setting": "U-937 xenografts", "value": "inhibited the growth"},
      {"measurement": "effects of phenformin on xenograft growth after introduction of NDI1", "setting": "[8]", "value": "rescued"},
      {"measurement": "phenformin sensitivity at intermediate glucose", "setting": "[9]; 1.5-3.0 mM glucose", "value": "substantial sensitivity persisted"},
      {"measurement": "sensitivity of BxPC3 cells to phenformin", "setting": "[9]; BxPC3 pancreatic cancer cell line", "value": "sensitive"},
      {"measurement": "effect of GLUT3 over-expression on phenformin sensitivity", "setting": "[9]; cells with impaired glucose utilization, 0.75 mM glucose", "value": "almost completely rescued the phenformin sensitivity"},
      {"measurement": "effect of NDI1 expression on the effects of phenformin on proliferation", "setting": "[9]; cells with mutations in Complex I, 0.75 mM glucose", "value": "almost completely rescued the effects of phenformin"},
      {"measurement": "phenformin sensitivity in 0.75 versus 10 mM glucose", "setting": "[9]; low glucose sensitive cell lines, particularly those with impaired glucose utilization", "value": "more sensitive to phenformin in 0.75 than 10 mM glucose"},
      {"measurement": "sensitivity of cells lacking mtDNA to phenformin", "setting": "143B Rho cells", "value": "insensitive to phenformin"}
    ]}
  ]
}
